Experimental data reported in patent US20030018071A1, “Method and compositions for treating fibrotic diseases” (priority 2002, published 2003).
≈ marks a conversion by molar mass, not a printed value.

How the values were obtained:
[1] = system: human fetal lung fibroblasts; experiment: Fibroblast chemotaxis toward fibronectin (Boyden blindwell chamber); assay type: cell-based
Experimental: Since the activity of a PDE4 inhibitor should be dependent on endogenous cyclic AMP levels, a study was designed to determine if endogenous prostaglandin production rendered cells susceptible to the effects of Ariflo. To accomplish this, human fetal lung fibroblasts were cultured and, after achieving confluence, were incubated for 60 minutes with and without indomethacin (2×10^−6 M) to inhibit cyclooxygenase. Fibroblasts were then trypsinized and placed in the upper portion of a Boyden blindwell chemotaxis chamber. Fibronectin, 20 μg/ml, was placed in the lower portion of the chamber as the chemoattractant. Indomethacin (2×10^−6 M) was added to the upper side of the chemotaxis chamber. […] In three separate experiments, the concentration of Ariflo required to inhibit chemotaxis by 50% was 4.9±2.5 μg/ml. In the presence of indomethacin, Ariflo inhibited chemotaxis only at the highest concentration tested 10 μg/ml reducing the response to 58.7±21.0% of control (p<005) compared to indomethacin. […] Since cyclooxygenase activity and prostaglandin production can be modulated by a variety of mediators present in an inflammatory milieu, fibroblasts in such a setting may be particularly sensitive to the inhibitory effects of Ariflo. Such an effect has therapeutic value in fibrotic disorders.

[2] = developed as an antidepressant; cited from earlier work

COc1ccc([C@]2(C#N)CC[C@@H](C(=O)O)CC2)cc1OC1CCCC1 [Ariflo, cis 4-cyano-4-(3-cyclopentyloxy-4-methoxyphenyl)cyclohexan-1-carboxylic acid]
activity at 10 µg/mL ([1]; Homo sapiens, Fibroblast, Ariflo 10 μg/ml in the presence of indomethacin 2×10^−6 M, compared to indomethacin, read-out: chemotaxis response, % of control): 58.7 ± 21% | IC50 ([1]; Homo sapiens, Fibroblast, control fibroblasts (no indomethacin), fibronectin 20 μg/ml as chemoattractant, three separate experiments, read-out: concentration required to inhibit chemotaxis by 50%): 4.9 ± 2.5 µg/mL (≈ 14.3 µM) | effect on chemotaxis (in words) ([1]; added to control fibroblasts): inhibited chemotaxis in a concentration dependent manner

COc1ccc2c(c1)c(CC(=O)O)c(C)n2C(=O)c1ccc(Cl)cc1 [Indomethacin, indomethacin, reference compound]
chemotaxis, % compared to control ([1]; indomethacin alone 2×10^−6 M, fibronectin 20 μg/ml): 159±33%

COc1ccc(C2CNC(=O)C2)cc1OC1CCCC1 (centres unmarked) [rolipram]
side effects in clinical studies [2]: has psychotropic activity and produces gastrointestinal effects, e.g., pyrosis, nausea and emesis
